Results: ChEMBL document CHEMBL4602643, “Anti-inflammatory activities of isopimara-8(14),-15-diene diterpenoids and mode of action of kaempulchraols P and Q from Kaempferia pulchra rhizomes” (Bioorg Med Chem Lett, 2020)
Activity calls are given as the source filed them. No cut-off for these calls is given here.

Key:
[1] = Cytotoxicity against mouse RAW264.7 cells assessed as cell survival at 10 uM; format: cell-based; details: read-out: Activity
[2] = Cytotoxicity against mouse RAW264.7 cells assessed as cell survival at 5 uM; format: cell-based; details: read-out: Activity
RAW264.7 [3] = assay: Anti-inflammatory activity in mouse RAW264.7 cells assessed as inhibition of LPS-induced NO production at 5 uM relative to control; format: functional
[4] = Cytotoxicity against mouse RAW264.7 cells assessed as cell survival at 100 uM; format: cell-based; details: read-out: Activity
RAW264.7 [5] = assay: Anti-inflammatory activity in mouse RAW264.7 cells assessed as inhibition of LPS-induced NO production at 10 uM relative to control; format: functional
RAW264.7 [6] = assay: Anti-inflammatory activity in mouse RAW264.7 cells assessed as inhibition of LPS-induced NO production; format: functional, cell-based
RAW264.7 [7] = assay: Anti-inflammatory activity in mouse RAW264.7 cells assessed as inhibition of LPS-induced NO production at 100 uM relative to control; format: functional
RAW264.7 [8] = assay: Anti-inflammatory activity in mouse RAW264.7 cells assessed as inhibition of LPS-induced NO production at 50 uM relative to control; format: functional
[9] = Cytotoxicity against mouse RAW264.7 cells assessed as cell survival at 50 uM; format: cell-based; details: read-out: Activity
RAW264.7 [10] = assay: Cytotoxicity against mouse RAW264.7 cells assessed as reduction in cell viability; format: cell-based
J774.1 = assay: Anti-inflammatory activity in mouse J774.1 cells assessed as inhibition of LPS-induced NO production preincubated for 2 hrs before LPS stimulation and measured after 24 hrs by Griess method; format: functional, cell-based
RAW264.7 [11] = assay: Inhibition of LPS-induced IL-6 production in mouse RAW264.7 cells at 25 uM by ELISA; format: functional, cell-based
RAW264.7 [12] = assay: Inhibition of NF-kappaB activation in mouse RAW264.7 cells expressing luciferase gene at 5 to 25 uM by luciferase reporter gene assay; format: cell-based
RAW264.7 [13] = assay: Inhibition of LPS-induced NF-kappaB activation in mouse RAW264.7 cells expressing luciferase gene at 5 to 25 uM by luciferase reporter gene assay; format: cell-based
RAW264.7 [14] = assay: Antiinflammatory activity in mouse RAW264.7 cells assessed as inhibition of LPS-induced COX2 expression at 25 uM incubated for 24 hrs by Western blot analysis; format: functional, cell-based
RAW264.7 [15] = assay: Cytotoxicity against mouse RAW264.7 cells expressing luciferase reporter gene assessed as cell survival at 5 to 25 uM; format: cell-based; details: raw264.7, 25 µM

Structure (SMILES) | IC50 (RAW264.7 [6]) [µM] | IC50 (J774.1) [µM] | viability at 10 µM [1] [%] | viability at 5 µM [2] [%] | inhibition at 5 µM (RAW264.7 [3]) [%] | viability at 100 µM [4] [%] | inhibition at 10 µM (RAW264.7 [5]) [%] | inhibition at 100 µM (RAW264.7 [7]) [%] | inhibition at 50 µM (RAW264.7 [8]) [%] | viability at 50 µM [9] [%] | IC50 (RAW264.7 [10]) [µM] | inhibition (RAW264.7 [11]) | inhibition (RAW264.7 [12]) | inhibition (RAW264.7 [13]) | inhibition (RAW264.7 [14]) | Activity (RAW264.7 [15])
C=C[C@]1(C)C=C2[C@@H](OC(C)=O)[C@@H](O)[C@H]3C(C)(C)CCC[C@]3(C)[C@@]2(O)CC1 | > 100 |  | 84.7 | 89.3 | 21.4 | 70.3 | 16.7 | 47.5 | 24.9 | 85.7 | > 50 |  |  |  |  | 
C=C[C@@]1(C)C[C@@H](OC(=O)c2ccccc2)[C@@H]2[C@@]3(C)C=C(O)C(=O)C(C)(C)[C@@H]3C[C@@H](OC(C)=O)[C@@]2(O)C1=O |  | 14.4 |  |  |  |  |  |  |  |  |  |  |  |  |  | 
C=C[C@]1(C)C[C@@H](OC(=O)c2ccccc2)[C@H]2[C@](O)(C1=O)[C@H](OC(C)=O)C[C@H]1C(C)(C)[C@H](OC(C)=O)[C@H](O)[C@H](OC(=O)c3ccccc3)[C@@]12C |  | 20.5 |  |  |  |  |  |  |  |  |  |  |  |  |  | 
C=C[C@]1(C)C=C2CC[C@H]3C(C)(C)C[C@H](O)[C@H](O)[C@]3(C)[C@H]2[C@H](O)C1 | > 100 |  | 50.9 | 65.7 | 17.2 | 66.5 | 11.1 | 22.4 | 37.1 | 60.9 |  |  |  |  |  | 
C=C[C@]1(C)C=C2[C@@H](O)[C@@H](O)[C@H]3C(C)(C)CCC[C@]3(C)[C@@]2(O)CC1 | 48.4 |  | 81.2 | 140 | 5.03 | 22.1 | 16.9 | 60.4 | 51.4 | 60.2 | > 50 |  |  |  |  | 
C=C[C@]1(C)C=C2C[C@@H](O)[C@H]3C(C)(C)[C@H](O)C[C@H](O)[C@]3(C)[C@H]2CC1 | > 100 |  | 113 | 104 | 9.01 | 101 | 15.2 | 24.1 | 34.3 | 89.4 |  |  |  |  |  | 
C=C[C@]1(C)C[C@@H](OC(=O)c2ccccc2)[C@H]2[C@](O)(C1=O)[C@H](OC(C)=O)C[C@H]1C(C)(C)[C@H](O)[C@H](OC(C)=O)[C@H](OC(=O)c3ccccc3)[C@@]12C |  | 11.5 |  |  |  |  |  |  |  |  |  |  |  |  |  | 
C=C[C@]1(C)C=C2C[C@@H](O)[C@H]3C(C)(C)CCC[C@]3(C)[C@@]2(OC)CC1 | 56.2 |  | 104 | 121 | 4.09 | 37.6 | 10.8 | 74.2 | 46.6 | 110 |  |  |  |  |  | 
C=C[C@]1(C)C=C2[C@@H](O)C[C@H]3C(C)(C)CCC[C@]3(C)[C@@]2(O)CC1 | > 100 |  | 98.8 | 114 | 18.4 | 71.3 | 14.8 | -5.96 | 5.89 | 73.3 |  |  |  |  |  | 
C=C[C@]1(C)C=C2[C@H](OC(C)=O)C[C@H]3C(C)(C)CCC[C@]3(C)[C@@]2(O)CC1 | 41.5 |  | 98.3 | 71.5 | 20.7 | 4.72 | 14.9 | 80.5 | 59.5 | 88.7 |  |  |  |  |  | 
CNC(=N)NCCC[C@H](N)C(=O)O [TILARGININE ACETATE] | 65.5 |  | 92.6 | 112 | 22.8 | 103 | 27 | 58.2 | 46.3 | 107 |  |  |  |  |  | 
C=C[C@]1(C)C=C2C[C@@H](OC(C)=O)[C@H]3C(C)(C)CCC[C@]3(C)[C@@]2(O)CC1 | > 100 |  | 82 | 76.9 | 17.7 | 76 | 9.03 | -3.85 | 7.9 | 68.8 |  |  |  |  |  | 
C=C[C@]1(C)C=C2[C@H](OC(C)=O)[C@@H](O)[C@H]3C(C)(C)CCC[C@]3(C)[C@H]2CC1 | 32.8 |  | 107 | 100 | -0.32 | 3.73 | 9.88 | 82.1 | 80.3 | 6.17 | 32.6 |  |  |  |  | 

The next lines start with results.

IC50 (RAW264.7 [6]) [µM] | IC50 (J774.1) [µM] | Structure (SMILES) | viability at 10 µM [1] [%] | viability at 5 µM [2] [%] | inhibition at 5 µM (RAW264.7 [3]) [%] | viability at 100 µM [4] [%] | inhibition at 10 µM (RAW264.7 [5]) [%] | inhibition at 100 µM (RAW264.7 [7]) [%] | inhibition at 50 µM (RAW264.7 [8]) [%] | viability at 50 µM [9] [%] | IC50 (RAW264.7 [10]) [µM] | inhibition (RAW264.7 [11]) | inhibition (RAW264.7 [12]) | inhibition (RAW264.7 [13]) | inhibition (RAW264.7 [14]) | Activity (RAW264.7 [15])
> 100 |  | C=C[C@]1(C)C=C2C(=O)C[C@H]3C(C)(C)CC[C@H](O)[C@]3(C)[C@H]2CC1 | 92.4 | 86.6 | 16.5 | 77.8 | 7.8 | 35.5 | 25.1 | 86.8 |  |  |  |  |  | 
53.8 |  | C=C[C@]1(C)C=C2CC[C@H]3C(C)(C)CC[C@H](O)[C@]3(C)[C@H]2CC1 | 77.4 | 57.7 | 27.2 | 3.78 | 14 | 80.5 | 47.5 | 67.6 |  |  |  |  |  | 
48.7 |  | C=C[C@@]1(C)C=C2CC[C@@H]3C(C)(C)C[C@@H](O)C[C@@]3(C)[C@@H]2CC1 | 115 | 97.5 | 3.43 | 4.35 | 7.09 | 81.8 | 50.8 | 114 |  |  |  |  |  | 
> 100 |  | C=C[C@]1(C)C=C2CC[C@H]3C(C)(C)C[C@H](O)[C@H](O)[C@]3(C)[C@@]2(O)CC1 | 85.3 | 85.7 | 18.1 | 27.6 | 7.8 | 20.8 | 21 | 27.5 |  |  |  |  |  | 
100 |  | C=C[C@]1(C)C=C2CC[C@H]3C(C)(C)C[C@H](O)[C@H](O)[C@]3(C)[C@H]2CC1 | 70.4 | 113 | 4.21 | 73.5 | 9.37 | 49.2 | 37.1 | 70.6 |  |  |  |  |  | 
95.3 |  | C=C[C@]1(C)C=C2CC[C@H]3C(C)(C)CC[C@H](O)[C@]3(C)[C@H]2[C@H](O)C1 | 86.7 | 78.4 | 13.4 | 27.8 | 6.28 | 50.4 | 46.6 | 35.9 |  |  |  |  |  | 
> 100 |  | C=C[C@]1(C)C=C2CC[C@H]3C(C)(C)[C@H](O)C[C@H](O)[C@]3(C)[C@H]2CC1 | 85.1 | 104 | 5.57 | 47.7 | 13.3 | 33.8 | 33.4 | 50 |  |  |  |  |  | 
41.7 |  | C=C[C@]1(C)C=C2[C@H](O)C[C@H]3C(C)(C)CCC[C@]3(C)[C@H]2CC1 | 65.8 | 76.9 | 17.4 | 34.2 | 14.4 | 67.6 | 59.3 | 58.8 |  |  |  |  |  | 
39.9 |  | C=C[C@]1(C)C=C2C[C@@H](O)[C@H]3C(C)(C)CCC[C@]3(C)[C@H]2CC1 | 149 | 98.7 | 9.97 | 66.8 | 3.82 | 81.7 | 65.6 | 109 |  | Active | Active | Active | Active | Non-Toxic
> 100 |  | C=C[C@]1(C)C=C2C[C@@H](O)[C@H]3C(C)(C)CC[C@H](O)[C@]3(C)[C@H]2CC1 | 65.7 | 72.9 | 17.4 | 67 | 17.7 | 26.3 | 35.2 | 52.2 |  |  |  |  |  | 
> 100 |  | C=C[C@]1(C)C=C2C(=O)C[C@H]3C(C)(C)CCC[C@]3(C)[C@@]2(O)CC1 | 83.3 | 93.3 | 33.3 | 45.8 | 32.5 | 41.6 | 40.1 | 50.7 |  |  |  |  |  | 
